Test results as given in patent US20260325533A1, “CDK INHIBITOR COMPOUNDS” (ALEKSIA THERAPEUTICS, INC., priority 2023, published 2026).
Like-named read-outs stand apart in the source and are kept apart here.

Key:
Type in all cases: biochemical
CDK4/CCND3 = CDK4/CCND3 (Homo sapiens, UniProt P11802); assay: CDK4 homogeneous time-resolved fluorescence (HTRF) kinase assay; details: CDK4/CCND
How it was run: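 IC50 values were derived from 11-point half-log dilutions, usually starting at 10 μM. Compound was first held for 20 min at 23 °C with 1.5 nM CDK4/CCND3. 1 mM ATP and 50 nM ULight-eIF4E-BP1 (Thr37/46) substrate were then added for 60 min, and the TR-FRET 665 nm signal was measured after EDTA stop and Eu-anti-phospho-4E-BP1 detection.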

CDK2/CCNE1 = CDK2/CCNE1 (Homo sapiens, UniProt P24941); assay: CDK2 homogeneous time-resolved fluorescence (HTRF) kinase assay; details: CDK2/CCNE
How it was run: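 IC50 derived from 11-point, half-log dilutions (usually top 10 μM) of compound, 1% DMSO. Kinase (3 nM CDK2/CCNE1) was preincubated with compound 20 min, then phosphorylated 50 nM ULight-4E-BP1 peptide at 1 mM ATP for 60 min, 23 °C. Europium-antibody TR-FRET read after EDTA stop.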

CDK1/CCNB1 = CDK1/CCNB1 (Homo sapiens, UniProt P06493); assay: CDK1 homogeneous time-resolved fluorescence (HTRF) kinase assay; details: CDK1/CCNB
Chain of CDK1/CCNB1 (P06493 whole entry): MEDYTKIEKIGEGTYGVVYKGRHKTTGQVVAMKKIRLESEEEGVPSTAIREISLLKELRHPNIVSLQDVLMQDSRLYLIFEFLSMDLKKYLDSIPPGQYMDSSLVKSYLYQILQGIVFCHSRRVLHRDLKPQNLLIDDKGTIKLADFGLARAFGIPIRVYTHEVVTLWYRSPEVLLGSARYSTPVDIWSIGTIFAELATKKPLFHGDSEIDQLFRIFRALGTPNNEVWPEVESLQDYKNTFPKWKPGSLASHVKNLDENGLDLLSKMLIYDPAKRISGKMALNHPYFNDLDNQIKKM
Chain of CDK1/CCNB1 (P14635 whole entry partner): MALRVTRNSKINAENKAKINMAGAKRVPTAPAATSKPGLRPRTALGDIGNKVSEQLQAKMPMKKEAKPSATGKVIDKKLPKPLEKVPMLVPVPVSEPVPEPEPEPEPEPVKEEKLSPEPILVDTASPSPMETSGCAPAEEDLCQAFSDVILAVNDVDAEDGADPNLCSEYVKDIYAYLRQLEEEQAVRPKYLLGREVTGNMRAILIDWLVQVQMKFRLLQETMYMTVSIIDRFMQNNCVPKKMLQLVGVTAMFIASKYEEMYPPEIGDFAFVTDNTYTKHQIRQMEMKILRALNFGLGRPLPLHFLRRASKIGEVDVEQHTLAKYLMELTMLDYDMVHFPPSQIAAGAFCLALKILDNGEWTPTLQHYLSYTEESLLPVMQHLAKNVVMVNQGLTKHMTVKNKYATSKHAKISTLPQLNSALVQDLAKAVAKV
How it was run: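 0.5 nM CDK1/CCNB1 was preincubated 20 min at 23 °C with compound in HEPES pH-unspecified buffer (MgCl2, EGTA, DTT, Tween 20), then reacted 60 min with 1 mM ATP and 50 nM ULight-4E-BP1 (Thr37/46) peptide. EDTA-stopped reactions were detected with 2 nM Eu-anti-phospho antibody; IC50 from 11-point half-log titrations.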

CDK6/CCND1 = CDK6/CCND1 (Homo sapiens, UniProt Q00534); assay: CDK6 homogeneous time-resolved fluorescence (HTRF) kinase assay; details: CDK6/CCND
Chain of CDK6/CCND1 (Q00534 whole entry): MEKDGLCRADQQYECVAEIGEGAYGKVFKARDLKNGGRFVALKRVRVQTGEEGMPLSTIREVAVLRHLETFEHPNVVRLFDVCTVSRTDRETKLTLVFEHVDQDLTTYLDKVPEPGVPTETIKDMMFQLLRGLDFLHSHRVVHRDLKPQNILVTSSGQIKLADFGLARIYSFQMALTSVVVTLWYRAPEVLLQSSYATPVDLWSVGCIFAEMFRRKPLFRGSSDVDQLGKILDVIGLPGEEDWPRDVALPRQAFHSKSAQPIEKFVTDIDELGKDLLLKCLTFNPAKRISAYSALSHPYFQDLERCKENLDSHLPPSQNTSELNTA
Chain of CDK6/CCND1 (P24385 whole entry partner): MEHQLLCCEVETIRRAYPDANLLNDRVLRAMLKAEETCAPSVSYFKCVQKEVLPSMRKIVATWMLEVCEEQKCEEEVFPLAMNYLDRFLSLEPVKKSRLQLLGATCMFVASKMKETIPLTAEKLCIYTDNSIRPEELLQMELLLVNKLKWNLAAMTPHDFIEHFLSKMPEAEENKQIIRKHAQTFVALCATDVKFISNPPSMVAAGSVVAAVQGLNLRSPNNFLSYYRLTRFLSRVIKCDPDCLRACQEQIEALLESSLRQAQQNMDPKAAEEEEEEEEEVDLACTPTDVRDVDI
How it was run: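 Recombinant CDK6/CCND1 (1 nM final) was preincubated with compound for 20 min at 23 °C in HEPES buffer with MgCl2, EGTA, DTT and Tween 20. Kinase reaction then ran 60 min at 23 °C with 1 mM ATP and 50 nM ULight-4E-BP1 (Thr37/46) peptide, and was stopped with EDTA.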

[1] = x = IC50 >250 nM, read-out: CDK4/CCND IC50 (>250 nM column)
[2] = x = IC50 25-250 nM, read-out: CDK2/CCNE IC50 (25-250 nM)
[3] = x = IC50 >250 nM, read-out: CDK1/CCNB IC50 (>250 nM column)
[4] = x = IC50 >250 nM, read-out: CDK6/CCND IC50 (>250 nM column)
[5] = <25 nM, read-out: CDK2/CCNE IC50, <25 nM
[6] = >250 nM, read-out: CDK1/CCNB IC50 >250 nM
[7] = 25-250 nM marked x, read-out: CDK4/CCND IC50 25-250 nM
[8] = <25 nM, read-out: CDK2/CCNE IC50 <25 nM
[9] = 25-250 nM marked x, read-out: CDK1/CCNB IC50 25-250 nM
[10] = 25-250 nM, read-out: CDK4/CCND IC50, 25-250 nM
[11] = 25-250 nM, 1 mM ATP, read-out: CDK6/CCND IC50, 25-250 nM

Chain of CDK4/CCND3 (P11802 whole entry): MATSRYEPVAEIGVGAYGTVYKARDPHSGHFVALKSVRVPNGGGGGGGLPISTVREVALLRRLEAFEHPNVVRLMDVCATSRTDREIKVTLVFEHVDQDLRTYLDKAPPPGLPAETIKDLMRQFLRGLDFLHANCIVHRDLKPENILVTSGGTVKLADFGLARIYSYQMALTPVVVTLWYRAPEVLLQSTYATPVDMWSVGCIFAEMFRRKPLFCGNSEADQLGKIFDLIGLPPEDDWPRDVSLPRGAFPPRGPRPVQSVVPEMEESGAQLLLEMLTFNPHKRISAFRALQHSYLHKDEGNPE
Chain of CDK4/CCND3 (P30281 whole entry partner): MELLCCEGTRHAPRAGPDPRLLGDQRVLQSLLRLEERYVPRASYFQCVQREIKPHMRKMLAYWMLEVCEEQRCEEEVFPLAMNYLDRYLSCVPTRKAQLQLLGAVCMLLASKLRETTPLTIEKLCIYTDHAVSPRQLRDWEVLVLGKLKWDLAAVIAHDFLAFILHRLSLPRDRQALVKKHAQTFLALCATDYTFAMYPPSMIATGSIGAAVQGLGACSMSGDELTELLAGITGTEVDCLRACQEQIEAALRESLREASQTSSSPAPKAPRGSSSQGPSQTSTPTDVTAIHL

An IC50 (CDK4/CCND3; [1]) greater than 250 nM, an IC50 (CDK2/CCNE1; [2]) of 25 to 250 nM and an IC50 (CDK1/CCNB1; [3]) greater than 250 nM were found for `CS(=O)(=O)c1ccc(Nc2cc3c(C#Cc4cc(N)n[nH]4)nccc3cn2)cc1` [Ex 559, 5-((3-amino-1H-pyrazol-5-yl)ethynyl)-N-(4-(methylsulfonyl)phenyl)-2,6-naphthyridin-3-amine] in this work. It also gave an IC50 (CDK6/CCND1; [4]) greater than 250 nM.
An IC50 (CDK4/CCND3; [1]) greater than 250 nM, an IC50 (CDK2/CCNE1; [2]) of 25 to 250 nM and an IC50 (CDK1/CCNB1; [3]) greater than 250 nM were found for `Nc1ncccc1C#Cc1nccc2cnc(Nc3ccc(S(=O)(=O)Nc4nccc(N5CCNCC5)n4)cc3)cc12` [Ex 468, 4-((5-((2-aminopyridin-3-yl)ethynyl)-2,6-naphthyridin-3-yl)amino)-N-(4-(piperazin-1-yl)pyrimidin-2-yl)benzenesulfonamide] in this work. It also gave an IC50 (CDK6/CCND1; [4]) greater than 250 nM.
An IC50 (CDK4/CCND3; [1]) greater than 250 nM, an IC50 (CDK2/CCNE1; x = IC50 >250 nM, read-out: CDK2/CCNE IC50 (>250 nM column)) greater than 250 nM and an IC50 (CDK1/CCNB1; [3]) greater than 250 nM were found for `COC(=O)c1ccc2c(C#Cc3nccc4cnc(Nc5ccc(S(C)(=O)=O)cc5)cc34)n[nH]c2c1` [Ex 498, methyl 3-((7-((4-(methylsulfonyl)phenyl)amino)-2,6-naphthyridin-1-yl)ethynyl)-1H-indazole-6-carboxylate] in this work. It also gave an IC50 (CDK6/CCND1; [4]) greater than 250 nM.
An IC50 (CDK4/CCND3; >250 nM, read-out: CDK4/CCND IC50, >250 nM) greater than 250 nM, an IC50 (CDK2/CCNE1; [5]) of less than 25 nM and an IC50 (CDK1/CCNB1; [6]) greater than 250 nM were found for `COc1cc(N2CCOCC2)nc(NS(=O)(=O)c2ccc(Nc3cc4c(-c5ccc6c(cnn6CC(O)(C(F)(F)F)C(F)(F)F)c5C)nccc4cn3)cc2)n1` [Ex 707, N-(4-methoxy-6-morpholinopyrimidin-2-yl)-4-((5-(4-methyl-1-(3,3,3-trifluoro-2-hydroxy-2-(trifluoromethyl)propyl)-1H-indazol-5-yl)-2,6-naphthyridin-3-yl)amino)benzenesulfonamide] in this work. The IC50 (CDK6/CCND1; >250 nM, 1 mM ATP, read-out: CDK6/CCND IC50, >250 nM) was greater than 250 nM.
An IC50 (CDK4/CCND3; [7]) of 25 to 250 nM, an IC50 (CDK2/CCNE1; [8]) of less than 25 nM and an IC50 (CDK1/CCNB1; [9]) of 25 to 250 nM were found for `Cc1cc(S(C)(=N)=O)ccc1Nc1cc2c(C#Cc3ccc4c(c3)NC(=O)C43CC3)nccc2cn1` (single isomer, unassigned) [Ex 326, 6'-((7-((2-methyl-4-(S-methylsulfonimidoyl)phenyl)amino)-2,6-naphthyridin-1-yl)ethynyl)spiro[cyclopropane-1,3'-indolin]-2'-one] in this work. For the same compound, the IC50 (CDK6/CCND1; >250 nM marked x, read-out: CDK6/CCND IC50 >250 nM) was greater than 250 nM.
An IC50 (CDK4/CCND3; [10]) of 25 to 250 nM, an IC50 (CDK2/CCNE1; [5]) of less than 25 nM and an IC50 (CDK1/CCNB1; [6]) greater than 250 nM were found for `Cc1c(-c2nccc3cnc(Nc4ccc(S(=O)(=O)Nc5nccn5C)cc4)cc23)ccc2c1cnn2CC(C)(C)O` [Ex 867, 4-((5-(1-(2-hydroxy-2-methylpropyl)-4-methyl-1H-indazol-5-yl)-2,6-naphthyridin-3-yl)amino)-N-(1-methyl-1H-imidazol-2-yl)benzenesulfonamide] in this work. It also gave an IC50 (CDK6/CCND1; [11]) of 25 to 250 nM.
An IC50 (CDK4/CCND3; [7]) of 25 to 250 nM, an IC50 (CDK2/CCNE1; [8]) of less than 25 nM and an IC50 (CDK1/CCNB1; [9]) of 25 to 250 nM were found for `Oc1ccc(Nc2cc3c(C4=CCCCC4)nccc3cn2)cc1` [Ex 99, 4-((5-(cyclohex-1-en-1-yl)-2,6-naphthyridin-3-yl)amino)phenol] in this work. The IC50 (CDK6/CCND1; <25 nM, read-out: CDK6/CCND IC50 <25 nM) was less than 25 nM.
An IC50 (CDK4/CCND3; x = IC50 25-250 nM, read-out: CDK4/CCND IC50 (25-250 nM)) of 25 to 250 nM, an IC50 (CDK2/CCNE1; x = IC50 <25 nM, read-out: CDK2/CCNE IC50 (<25 nM)) of less than 25 nM and an IC50 (CDK1/CCNB1; x = IC50 25-250 nM, read-out: CDK1/CCNB IC50 (25-250 nM)) of 25 to 250 nM were found for `Cc1c(-c2nccc3cnc(Nc4ccc(S(=O)(=O)C5CC5)cc4)cc23)ccc2c1cnn2CCO` [Ex 662, 2-(5-(7-((4-(cyclopropylsulfonyl)phenyl)amino)-2,6-naphthyridin-1-yl)-4-methyl-1H-indazol-1-yl)ethan-1-ol] in this work. It also gave an IC50 (CDK6/CCND1; x = IC50 25-250 nM, read-out: CDK6/CCND IC50 (25-250 nM)) of 25 to 250 nM.
An IC50 (CDK4/CCND3; [10]) of 25 to 250 nM, an IC50 (CDK2/CCNE1; [5]) of less than 25 nM and an IC50 (CDK1/CCNB1; [6]) greater than 250 nM were found for `Cc1c(-c2nccc3cnc(Nc4ccc5c(c4)CCCS5(=O)=O)cc23)ccc2c1cnn2CC(C)(C)O` [Ex 914, 6-((5-(1-(2-hydroxy-2-methylpropyl)-4-methyl-1H-indazol-5-yl)-2,6-naphthyridin-3-yl)amino)thiochromane 1,1-dioxide] in this work. It also gave an IC50 (CDK6/CCND1; [11]) of 25 to 250 nM.
